Columns and labels:
[1] = AUCN in Wistar Han rat at 10 mg/kg, po; format: ADME, organism-based; details: in vivo
[2] = Half life in Wistar Han rat at 2 mg/kg, iv; format: ADME, organism-based; details: in vivo
Protein O-GlcNAcase [3] = molecular target: T1, Protein O-GlcNAcase (Rattus norvegicus, UniProt Q8VIJ5); assay: Inhibition of OGA in rat PC12 cells assessed as OGlcNAcylated protein level incubated for 24 hrs by ELISA; format: cell-based
T1 sequence (Q8VIJ5 whole entry): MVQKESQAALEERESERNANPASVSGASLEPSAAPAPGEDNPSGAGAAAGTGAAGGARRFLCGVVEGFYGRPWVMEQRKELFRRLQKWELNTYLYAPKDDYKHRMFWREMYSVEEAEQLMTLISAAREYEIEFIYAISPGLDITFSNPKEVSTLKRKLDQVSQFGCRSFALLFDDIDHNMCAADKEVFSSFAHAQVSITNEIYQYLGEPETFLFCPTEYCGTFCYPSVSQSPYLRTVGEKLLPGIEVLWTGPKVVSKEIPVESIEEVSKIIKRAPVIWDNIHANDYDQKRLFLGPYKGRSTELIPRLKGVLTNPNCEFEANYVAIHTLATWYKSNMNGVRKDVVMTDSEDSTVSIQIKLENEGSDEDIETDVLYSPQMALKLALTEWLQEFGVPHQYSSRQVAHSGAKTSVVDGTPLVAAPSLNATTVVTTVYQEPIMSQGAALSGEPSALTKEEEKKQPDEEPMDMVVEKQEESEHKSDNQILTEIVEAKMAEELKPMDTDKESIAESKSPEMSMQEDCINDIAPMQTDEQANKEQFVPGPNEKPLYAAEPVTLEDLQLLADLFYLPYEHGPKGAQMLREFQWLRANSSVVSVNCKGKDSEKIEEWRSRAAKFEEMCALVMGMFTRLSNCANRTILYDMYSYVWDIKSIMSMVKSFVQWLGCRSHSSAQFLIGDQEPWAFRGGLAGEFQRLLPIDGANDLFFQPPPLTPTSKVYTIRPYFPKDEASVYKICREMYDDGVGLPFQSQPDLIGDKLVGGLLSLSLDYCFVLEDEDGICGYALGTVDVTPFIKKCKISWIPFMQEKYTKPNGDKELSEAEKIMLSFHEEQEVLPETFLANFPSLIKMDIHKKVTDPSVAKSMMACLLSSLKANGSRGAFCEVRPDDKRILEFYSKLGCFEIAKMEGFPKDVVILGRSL

[4] = Volume of distribution at steady state in Wistar Han rat at 2 mg/kg, iv or 10 mg/kg, po; format: ADME, organism-based; details: in vivo, read-out: Vdss
Protein O-GlcNAcase [5] = molecular target: T2, Protein O-GlcNAcase (Homo sapiens, UniProt O60502); assay: Inhibition of recombinant human OGA
T2 sequence (O60502 whole entry): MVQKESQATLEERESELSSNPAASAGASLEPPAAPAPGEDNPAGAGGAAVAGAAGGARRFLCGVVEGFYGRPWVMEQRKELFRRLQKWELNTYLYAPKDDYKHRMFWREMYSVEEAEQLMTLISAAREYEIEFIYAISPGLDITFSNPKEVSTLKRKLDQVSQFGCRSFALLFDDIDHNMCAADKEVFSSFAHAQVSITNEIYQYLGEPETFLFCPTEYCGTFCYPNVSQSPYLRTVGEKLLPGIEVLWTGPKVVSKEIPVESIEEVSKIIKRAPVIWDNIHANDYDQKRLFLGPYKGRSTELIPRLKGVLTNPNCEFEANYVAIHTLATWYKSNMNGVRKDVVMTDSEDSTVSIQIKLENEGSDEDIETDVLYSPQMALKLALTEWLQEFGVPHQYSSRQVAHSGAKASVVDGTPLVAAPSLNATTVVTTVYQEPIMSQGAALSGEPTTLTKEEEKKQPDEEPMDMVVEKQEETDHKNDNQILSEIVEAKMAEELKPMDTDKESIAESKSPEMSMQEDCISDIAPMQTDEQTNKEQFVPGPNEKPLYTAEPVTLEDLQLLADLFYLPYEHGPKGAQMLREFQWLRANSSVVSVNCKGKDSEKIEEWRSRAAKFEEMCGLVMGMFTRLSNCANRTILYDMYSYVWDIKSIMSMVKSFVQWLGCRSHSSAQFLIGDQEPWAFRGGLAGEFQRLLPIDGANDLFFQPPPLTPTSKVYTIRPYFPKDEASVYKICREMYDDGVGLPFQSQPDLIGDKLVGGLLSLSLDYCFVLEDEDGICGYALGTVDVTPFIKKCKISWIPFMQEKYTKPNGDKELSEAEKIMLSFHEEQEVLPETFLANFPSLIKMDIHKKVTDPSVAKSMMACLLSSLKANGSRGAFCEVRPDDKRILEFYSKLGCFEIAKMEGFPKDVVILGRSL

[6] = Clearance in Wistar Han rat at 2 mg/kg, iv; format: ADME, organism-based; details: in vivo
[7] = Oral bioavailability in Wistar Han rat at 10 mg/kg; format: ADME, organism-based; details: in vivo
[8] = molecular target: T3, Beta-hexosaminidase subunit beta (Homo sapiens, UniProt P07686); assay: Inhibition of human beta hexosaminidase assessed as inhibitory constant using 4-methylumbelliferyl N-acetyl-beta-D-glucosaminide dihydrate as substrate measured every 60 sec for 45 mins by fluorescence spectrophotometry
T3 sequence (P07686 whole entry): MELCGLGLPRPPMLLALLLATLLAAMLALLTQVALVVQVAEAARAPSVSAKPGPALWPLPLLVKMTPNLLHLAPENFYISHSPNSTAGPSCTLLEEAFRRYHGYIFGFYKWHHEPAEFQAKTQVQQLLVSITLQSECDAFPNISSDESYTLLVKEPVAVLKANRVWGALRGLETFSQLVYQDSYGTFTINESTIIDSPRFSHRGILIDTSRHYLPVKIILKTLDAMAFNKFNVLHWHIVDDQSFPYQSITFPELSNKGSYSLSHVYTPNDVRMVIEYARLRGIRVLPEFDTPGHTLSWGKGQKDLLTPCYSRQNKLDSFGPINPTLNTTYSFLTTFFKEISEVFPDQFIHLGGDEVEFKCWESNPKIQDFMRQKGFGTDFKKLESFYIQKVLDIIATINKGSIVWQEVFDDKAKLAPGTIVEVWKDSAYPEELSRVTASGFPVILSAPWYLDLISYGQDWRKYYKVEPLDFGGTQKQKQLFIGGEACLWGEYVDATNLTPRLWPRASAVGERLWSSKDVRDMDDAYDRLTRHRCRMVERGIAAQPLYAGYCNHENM

[9] = Fraction unbound in Wistar Han rat plasma at 2.5 uM by equilibrium dialysis; format: ADME, cell-free
[10] = Ratio of drug uptake in rat brain to plasma at 3 mg/kg, po measured after 24 hrs; format: ADME, organism-based; details: read-out: BPR
[11] = Drug uptake in rat brain at 3 mg/kg, po measured after 8 hrs; format: ADME, organism-based; details: in vivo
[12] = AUCN in Wistar Han rat at 3 mg/kg, po; format: ADME, organism-based; details: in vivo
Rattus norvegicus [13] = assay: Elevation of O-protein in rat brain at 3 mg/kg, po measured after 8 hrs relative to control; format: functional
Rattus norvegicus [14] = assay: Elevation of O-protein in rat brain at 3 mg/kg, po measured after 24 hrs relative to control; format: functional
MDR1 = assay: Apparent permeability in pig LLC-PK1 cells transfected with MDR1; format: ADME, cell-based, Sus scrofa
[15] = Volume of distribution at steady state in Wistar Han rat at 2 mg/kg, iv or 3 mg/kg, po; format: ADME, organism-based; details: in vivo, read-out: Vdss
[16] = Ratio of drug uptake in rat brain to plasma at 3 mg/kg, po measured after 8 hrs; format: ADME, organism-based; details: read-out: BPR
[17] = Oral bioavailability in Wistar Han rat at 3 mg/kg; format: ADME, organism-based; details: in vivo
[18] = Fraction unbound in human plasma at 2.5 uM by equilibrium dialysis; format: ADME, cell-free
[19] = Drug uptake in rat brain at 3 mg/kg, po measured after 24 hrs; format: ADME, organism-based; details: in vivo
[20] = molecular target: Voltage-gated inwardly rectifying potassium channel KCNH2 (Homo sapiens, UniProt Q12809); assay: Displacement of MK-0499 from human ERG
Cytochrome P450 2D6 = Cytochrome P450 2D6 (Homo sapiens, UniProt P10635); assay: Inhibition of CYP2D6 (unknown origin); format: ADME
[21] = molecular target: T4, Nuclear receptor subfamily 1 group I member 2 (Homo sapiens, UniProt O75469); assay: Activation of PXR (unknown origin) assessed as CYP3A4 induction
T4 sequence (O75469 whole entry): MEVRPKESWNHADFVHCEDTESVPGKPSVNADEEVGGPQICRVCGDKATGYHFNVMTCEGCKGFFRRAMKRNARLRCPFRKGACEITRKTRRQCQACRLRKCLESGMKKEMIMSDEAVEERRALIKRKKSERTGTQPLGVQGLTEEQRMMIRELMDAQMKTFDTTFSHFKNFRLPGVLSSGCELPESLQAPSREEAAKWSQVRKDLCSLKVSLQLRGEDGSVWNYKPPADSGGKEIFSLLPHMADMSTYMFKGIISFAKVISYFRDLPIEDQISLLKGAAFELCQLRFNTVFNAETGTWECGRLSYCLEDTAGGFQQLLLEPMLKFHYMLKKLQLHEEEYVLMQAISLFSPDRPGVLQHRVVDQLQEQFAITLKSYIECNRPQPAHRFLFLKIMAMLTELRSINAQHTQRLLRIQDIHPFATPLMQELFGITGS

Cytochrome P450 2C9 = Cytochrome P450 2C9 (Homo sapiens, UniProt P11712); assay: Inhibition of CYP2C9 (unknown origin); format: ADME
[22] = molecular target: Sodium channel protein type 5 subunit alpha (Homo sapiens, UniProt Q14524); assay: Inhibition of Nav1.5 (unknown origin)
[23] = molecular target: Voltage-dependent L-type calcium channel subunit alpha-1C (Homo sapiens, UniProt Q13936); assay: Inhibition of Cav1.2 (unknown origin)
Cytochrome P450 3A4 = Cytochrome P450 3A4 (Homo sapiens, UniProt P08684); assay: Inhibition of CYP3A4 (unknown origin); format: ADME
Sequence of Cytochrome P450 3A4 (P08684 whole entry): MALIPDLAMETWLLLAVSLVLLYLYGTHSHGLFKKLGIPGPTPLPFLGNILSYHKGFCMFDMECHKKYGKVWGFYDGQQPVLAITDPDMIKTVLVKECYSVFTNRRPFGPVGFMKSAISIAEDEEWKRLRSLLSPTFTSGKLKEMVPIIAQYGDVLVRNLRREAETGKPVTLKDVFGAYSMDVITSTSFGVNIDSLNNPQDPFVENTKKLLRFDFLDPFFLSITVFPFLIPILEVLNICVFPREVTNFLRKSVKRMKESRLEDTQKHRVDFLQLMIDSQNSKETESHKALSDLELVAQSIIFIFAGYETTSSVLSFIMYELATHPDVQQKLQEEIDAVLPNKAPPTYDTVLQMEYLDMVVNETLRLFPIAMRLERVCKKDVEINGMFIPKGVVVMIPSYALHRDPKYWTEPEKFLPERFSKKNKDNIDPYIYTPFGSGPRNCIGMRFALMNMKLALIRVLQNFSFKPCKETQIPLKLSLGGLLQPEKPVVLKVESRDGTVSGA

Sequence of Cytochrome P450 2D6 (P10635 whole entry): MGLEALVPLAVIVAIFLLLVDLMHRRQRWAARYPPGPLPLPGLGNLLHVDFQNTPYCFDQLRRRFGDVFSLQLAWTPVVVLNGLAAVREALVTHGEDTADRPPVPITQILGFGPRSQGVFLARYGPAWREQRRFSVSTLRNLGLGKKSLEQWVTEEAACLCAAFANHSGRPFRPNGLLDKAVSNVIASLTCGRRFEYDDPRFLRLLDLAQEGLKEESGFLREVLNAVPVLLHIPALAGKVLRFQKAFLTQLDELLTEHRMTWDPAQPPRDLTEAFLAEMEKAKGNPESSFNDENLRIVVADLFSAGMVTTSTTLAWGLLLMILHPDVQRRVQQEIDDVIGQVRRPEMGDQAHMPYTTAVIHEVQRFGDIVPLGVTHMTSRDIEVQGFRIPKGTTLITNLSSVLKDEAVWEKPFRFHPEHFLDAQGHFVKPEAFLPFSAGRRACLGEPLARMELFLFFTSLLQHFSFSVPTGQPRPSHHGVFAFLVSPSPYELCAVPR
Sequence of Cytochrome P450 2C9 (P11712 whole entry): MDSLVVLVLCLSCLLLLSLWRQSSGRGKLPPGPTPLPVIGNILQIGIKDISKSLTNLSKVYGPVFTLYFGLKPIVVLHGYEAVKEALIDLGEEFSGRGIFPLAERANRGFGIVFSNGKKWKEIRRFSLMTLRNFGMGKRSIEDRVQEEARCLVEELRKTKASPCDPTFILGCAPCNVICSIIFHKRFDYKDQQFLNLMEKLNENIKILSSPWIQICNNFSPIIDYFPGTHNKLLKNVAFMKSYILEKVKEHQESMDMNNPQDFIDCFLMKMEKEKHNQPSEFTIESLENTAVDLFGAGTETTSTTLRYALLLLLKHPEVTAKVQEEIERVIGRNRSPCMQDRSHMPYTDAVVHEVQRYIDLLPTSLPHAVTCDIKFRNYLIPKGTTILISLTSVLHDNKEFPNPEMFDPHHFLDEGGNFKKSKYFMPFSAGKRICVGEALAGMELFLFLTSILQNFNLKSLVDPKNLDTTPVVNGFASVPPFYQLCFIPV
Sequence of Voltage-gated inwardly rectifying potassium channel KCNH2 (Q12809 whole entry): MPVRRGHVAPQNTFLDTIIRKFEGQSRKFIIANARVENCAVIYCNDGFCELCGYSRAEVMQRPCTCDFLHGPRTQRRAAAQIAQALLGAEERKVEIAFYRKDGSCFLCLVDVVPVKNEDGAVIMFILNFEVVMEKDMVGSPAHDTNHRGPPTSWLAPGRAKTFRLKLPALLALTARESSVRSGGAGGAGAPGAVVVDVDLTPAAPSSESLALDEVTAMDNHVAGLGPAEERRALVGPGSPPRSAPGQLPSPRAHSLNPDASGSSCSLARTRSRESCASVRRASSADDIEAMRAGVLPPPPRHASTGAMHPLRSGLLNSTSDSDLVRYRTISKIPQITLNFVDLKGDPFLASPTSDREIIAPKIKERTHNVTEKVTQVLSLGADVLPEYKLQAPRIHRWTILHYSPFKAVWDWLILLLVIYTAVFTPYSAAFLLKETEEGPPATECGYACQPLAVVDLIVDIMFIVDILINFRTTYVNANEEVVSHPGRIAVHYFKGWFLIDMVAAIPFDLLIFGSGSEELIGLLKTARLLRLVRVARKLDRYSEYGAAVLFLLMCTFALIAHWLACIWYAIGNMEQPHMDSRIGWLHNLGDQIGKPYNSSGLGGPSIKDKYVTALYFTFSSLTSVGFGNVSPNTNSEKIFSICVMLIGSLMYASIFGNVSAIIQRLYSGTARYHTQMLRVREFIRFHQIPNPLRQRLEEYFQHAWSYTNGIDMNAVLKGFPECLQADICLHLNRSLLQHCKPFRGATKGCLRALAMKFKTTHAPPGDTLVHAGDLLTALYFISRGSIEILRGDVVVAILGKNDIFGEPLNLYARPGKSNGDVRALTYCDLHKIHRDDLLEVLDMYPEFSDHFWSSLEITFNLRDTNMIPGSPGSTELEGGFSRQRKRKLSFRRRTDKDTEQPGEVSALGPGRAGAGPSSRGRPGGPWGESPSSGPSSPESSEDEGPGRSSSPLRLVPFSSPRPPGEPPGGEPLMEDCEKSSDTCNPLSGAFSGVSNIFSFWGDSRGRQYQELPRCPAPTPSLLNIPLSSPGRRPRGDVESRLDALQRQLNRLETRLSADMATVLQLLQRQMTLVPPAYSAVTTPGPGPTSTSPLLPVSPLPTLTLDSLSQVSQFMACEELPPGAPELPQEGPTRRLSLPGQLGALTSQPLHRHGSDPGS
Sequence of Sodium channel protein type 5 subunit alpha (Q14524 whole entry): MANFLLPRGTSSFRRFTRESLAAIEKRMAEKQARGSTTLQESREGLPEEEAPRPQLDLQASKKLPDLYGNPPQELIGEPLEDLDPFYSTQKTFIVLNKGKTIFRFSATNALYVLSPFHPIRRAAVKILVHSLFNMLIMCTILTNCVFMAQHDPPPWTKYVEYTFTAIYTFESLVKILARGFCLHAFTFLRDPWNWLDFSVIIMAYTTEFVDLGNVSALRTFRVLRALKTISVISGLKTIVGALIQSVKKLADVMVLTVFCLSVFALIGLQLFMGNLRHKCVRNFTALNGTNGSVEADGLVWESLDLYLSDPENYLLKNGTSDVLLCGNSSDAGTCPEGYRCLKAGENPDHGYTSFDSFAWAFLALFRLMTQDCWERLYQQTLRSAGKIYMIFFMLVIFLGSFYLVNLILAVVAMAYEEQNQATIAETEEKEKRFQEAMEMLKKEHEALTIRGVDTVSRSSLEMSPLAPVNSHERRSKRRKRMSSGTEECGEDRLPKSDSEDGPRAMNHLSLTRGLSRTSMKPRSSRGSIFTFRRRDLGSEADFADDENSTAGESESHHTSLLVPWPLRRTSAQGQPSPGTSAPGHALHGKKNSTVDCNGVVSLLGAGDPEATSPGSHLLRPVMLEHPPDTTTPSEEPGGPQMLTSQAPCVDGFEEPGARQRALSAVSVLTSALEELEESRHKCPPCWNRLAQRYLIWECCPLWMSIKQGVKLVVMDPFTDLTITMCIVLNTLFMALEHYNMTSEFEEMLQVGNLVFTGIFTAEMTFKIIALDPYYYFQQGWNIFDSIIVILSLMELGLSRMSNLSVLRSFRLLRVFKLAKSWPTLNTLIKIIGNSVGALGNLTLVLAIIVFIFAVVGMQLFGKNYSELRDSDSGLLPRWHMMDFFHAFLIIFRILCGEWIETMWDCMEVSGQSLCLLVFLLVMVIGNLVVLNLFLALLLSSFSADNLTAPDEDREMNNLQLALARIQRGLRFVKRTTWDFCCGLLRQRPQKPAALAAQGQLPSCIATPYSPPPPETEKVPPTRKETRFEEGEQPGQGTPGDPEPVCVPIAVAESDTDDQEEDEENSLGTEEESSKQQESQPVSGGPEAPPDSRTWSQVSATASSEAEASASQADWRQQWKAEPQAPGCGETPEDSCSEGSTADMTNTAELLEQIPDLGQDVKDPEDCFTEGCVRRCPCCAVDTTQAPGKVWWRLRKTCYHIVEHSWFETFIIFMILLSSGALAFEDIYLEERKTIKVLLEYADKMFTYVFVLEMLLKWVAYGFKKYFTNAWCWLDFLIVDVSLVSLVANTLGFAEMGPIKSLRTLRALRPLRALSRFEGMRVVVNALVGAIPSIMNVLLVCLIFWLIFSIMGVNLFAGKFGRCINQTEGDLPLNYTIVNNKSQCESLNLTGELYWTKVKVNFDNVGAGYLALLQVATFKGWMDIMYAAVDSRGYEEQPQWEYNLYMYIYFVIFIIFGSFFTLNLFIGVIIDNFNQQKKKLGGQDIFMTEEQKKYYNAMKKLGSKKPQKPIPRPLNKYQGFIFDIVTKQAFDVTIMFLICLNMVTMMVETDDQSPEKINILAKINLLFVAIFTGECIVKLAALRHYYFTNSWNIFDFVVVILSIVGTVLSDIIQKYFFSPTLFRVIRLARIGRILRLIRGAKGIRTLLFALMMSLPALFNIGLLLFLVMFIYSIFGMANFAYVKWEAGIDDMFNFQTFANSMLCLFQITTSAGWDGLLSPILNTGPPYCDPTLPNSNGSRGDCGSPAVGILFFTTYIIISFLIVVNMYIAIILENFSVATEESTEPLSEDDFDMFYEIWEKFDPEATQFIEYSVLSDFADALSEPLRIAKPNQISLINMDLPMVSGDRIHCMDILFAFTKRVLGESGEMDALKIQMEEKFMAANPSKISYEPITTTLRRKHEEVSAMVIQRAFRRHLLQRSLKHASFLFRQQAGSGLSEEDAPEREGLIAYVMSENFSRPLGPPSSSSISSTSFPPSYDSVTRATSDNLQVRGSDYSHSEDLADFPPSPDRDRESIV

| Structure (SMILES) | AUC/dose [1] [µM·kg·h/mg] | half-life [2] [h] | EC50 (Protein O-GlcNAcase [3]) [nM] | Vd [4] [L/kg] | Ki (Protein O-GlcNAcase [5]) [nM] | clearance [6] [mL/min/kg] | bioavailability [7] [%] | Ki [8] [nM] | fraction unbound at 2.5 µM [9] | Kp at 24 h [10] | Drug uptake [11] [nmol/g] | AUC/dose [12] [µM·kg·h/mg] | fold change (FC) (Rattus norvegicus [13]) | fold change (FC) (Rattus norvegicus [14]) | Papp (MDR1) [×10⁻⁶ cm/s] | Vd [15] [L/kg] | Kp at 8 h [16] | bioavailability [17] [%] | fraction unbound at 2.5 µM [18] | Drug uptake [19] [nmol/g] | further results |
| --- | --- | --- | --- | --- | --- | --- | --- | --- | --- | --- | --- | --- | --- | --- | --- | --- | --- | --- | --- | --- | --- |
| OC[C@H]1O[C@@H]2SC(N3CCC3)=N[C@@H]2[C@@H](O)[C@@H]1O | 1.15 | 1.63 | 28 | 2.88 | 3.3 | 53.6 | 96 | > 10000 | – | – | – | – | – | – | – | – | – | – | – | – | – |
| CN(C)C1=N[C@@H]2[C@@H](O)[C@H](O)[C@@H](CF)O[C@@H]2S1 | – | – | 177 | – | 9 | 43.7 | – | 1600 | > 0.99 | 1.53 | 0.222 | 0.954 | 2.33 | 1.77 | 6.8 | 10.5 | 0.9 | 75.3 | > 0.99 | 0.038 | – |
| CNC1=N[C@@H]2[C@@H](O)[C@H](O)[C@@H](CF)O[C@@H]2S1 | – | 1.71 | 34.4 | – | 0.55 | 27.8 | – | 790 | 0.88 | ≥ 7.9 | 0.068 | 3.36 | 2.44 | 1.65 | 5.3 | 1.79 | 0.6 | 132 | 0.96 | 0.025 | – |
| CCNC1=N[C@@H]2[C@@H](F)[C@H](O)[C@@H](CO)O[C@@H]2S1 | 2.16 | 2.4 | 443 | 2 | 29 | 31.9 | 104 | > 10000 | – | – | – | – | – | – | 2.7 | – | – | – | – | – | IC50 [20]: > 30000 nM; IC50 (Cytochrome P450 2D6): > 50000 nM; EC50 [21]: > 30000 nM; IC50 (Cytochrome P450 2C9): > 50000 nM; IC50 [22]: > 30000 nM; IC50 [23]: > 30000 nM; IC50 (Cytochrome P450 3A4): > 50000 nM |
| CCN(C)C1=N[C@@H]2[C@@H](O)[C@H](O)[C@@H](CO)O[C@@H]2S1 | 0.598 | 1.89 | 36.7 | 5.39 | 5.5 | 66.3 | 62 | 3600 | – | – | – | – | – | – | 1.1 | – | – | – | – | – | IC50 [20]: > 30000 nM; IC50 (Cytochrome P450 2D6): > 50000 nM; EC50 [21]: > 30000 nM; IC50 (Cytochrome P450 2C9): > 50000 nM; IC50 [22]: > 30000 nM; IC50 [23]: > 30000 nM; IC50 (Cytochrome P450 3A4): > 50000 nM |
| CNC1=N[C@@H]2C[C@H](O)[C@@H](CO)O[C@@H]2S1 | 2.53 | 1.06 | 33.1 | 2.8 | 9.4 | 39 | 129 | > 10000 | – | – | – | – | – | – | – | – | – | – | – | – | – |

From ChEMBL document CHEMBL4354805, “Discovery of MK-8719, a Potent O-GlcNAcase Inhibitor as a Potential Treatment for Tauopathies” (J Med Chem, 2019)
